Assay results taken from ChEMBL document CHEMBL1151757, “Synthesis, radiosynthesis, and biological evaluation of fluorine-18-labeled 2beta-carbo(fluoroalkoxy)-3beta-(3'-((Z)-2-haloethenyl)phenyl)nortropanes: candidate radioligands for in vivo imaging of the serotonin transporter with positron emission tomography” (J Med Chem, 2008).

Legend:
[1] = Ratio of drug uptake in pons to cerebellum in anesthetized cynomolgus monkey after 95 mins postinjection; format: ADME, organism-based, Macaca fascicularis; settings: in vivo
[2] = Ratio of drug uptake in pons to cerebellum in anesthetized cynomolgus monkey after 105 mins postinjection; format: ADME, organism-based, Macaca fascicularis; settings: in vivo, 1.75 h
[3] = Ratio of drug uptake in pons to cerebellum in anesthetized cynomolgus monkey after 145 mins postinjection; format: ADME, organism-based, Macaca fascicularis; settings: in vivo
[4] = Ratio of drug uptake in pons to cerebellum in anesthetized cynomolgus monkey after 225 mins postinjection; format: ADME, organism-based, Macaca fascicularis; settings: in vivo, 3.75 h
[5] = Ratio of drug uptake in pons to cerebellum in anesthetized cynomolgus monkey after 195 mins postinjection; format: ADME, organism-based, Macaca fascicularis; settings: in vivo, 3.25 h
[6] = Ratio of drug uptake in medulla to cerebellum in anesthetized cynomolgus monkey after 85 mins postinjection; format: ADME, organism-based, Macaca fascicularis; settings: in vivo
[7] = Ratio of drug uptake in medulla to cerebellum in anesthetized cynomolgus monkey after 185 mins postinjection; format: ADME, organism-based, Macaca fascicularis; settings: in vivo
[8] = Drug uptake in anesthetized cynomolgus monkey brain occipital lobe after 1.5 mins postinjection; format: ADME, organism-based, Macaca fascicularis; settings: in vivo, 0.025 h
[9] = Drug uptake in anesthetized cynomolgus monkey brain occipital lobe after 4.5 mins postinjection; format: ADME, organism-based, Macaca fascicularis; settings: in vivo, 0.075 h
[10] = Drug uptake in anesthetized cynomolgus monkey brain occipital lobe after 6.5 mins postinjection; format: ADME, organism-based, Macaca fascicularis; set-up: unit not given here; settings: in vivo
[11] = Drug uptake in anesthetized cynomolgus monkey brain occipital lobe after 85 mins postinjection; format: ADME, organism-based, Macaca fascicularis; settings: in vivo
[12] = Drug uptake in anesthetized cynomolgus monkey brain occipital lobe after 115 mins postinjection; format: ADME, organism-based, Macaca fascicularis; settings: in vivo
[13] = Drug uptake in anesthetized cynomolgus monkey brain frontal lobe after 6.5 mins postinjection; format: ADME, organism-based, Macaca fascicularis; settings: in vivo
[14] = Drug uptake in anesthetized cynomolgus monkey brain frontal lobe after 9.5 mins postinjection; format: ADME, organism-based, Macaca fascicularis; settings: in vivo
[15] = Drug uptake in anesthetized cynomolgus monkey brain frontal lobe after 65 mins postinjection; format: ADME, organism-based, Macaca fascicularis; settings: in vivo
[16] = Drug uptake in anesthetized cynomolgus monkey brain frontal lobe after 95 mins postinjection; format: ADME, organism-based, Macaca fascicularis; settings: in vivo
[17] = Drug uptake in anesthetized cynomolgus monkey brain frontal lobe after 115 mins postinjection; format: ADME, organism-based, Macaca fascicularis; settings: in vivo
[18] = Ratio of drug uptake in midbrain to cerebellum in anesthetized cynomolgus monkey after 185 mins postinjection; format: ADME, organism-based, Macaca fascicularis; settings: in vivo
[19] = Ratio of drug uptake in occipital lobe to cerebellum in anesthetized cynomolgus monkey after 125 mins postinjection; format: ADME, organism-based, Macaca fascicularis; settings: in vivo
Putamen [20] = test: Drug uptake in anesthetized cynomolgus monkey brain putamen after 145 mins postinjection; format: ADME, organism-based, Macaca fascicularis; settings: in vivo
Putamen [21] = test: Drug uptake in anesthetized cynomolgus monkey brain putamen after 165 mins postinjection; format: ADME, organism-based, Macaca fascicularis; settings: in vivo, 2.75 h
Putamen [22] = test: Drug uptake in anesthetized cynomolgus monkey brain putamen after 215 mins postinjection; format: ADME, organism-based, Macaca fascicularis; settings: in vivo
[23] = Ratio of drug uptake in occipital lobe to cerebellum in anesthetized cynomolgus monkey after 195 mins postinjection; format: ADME, organism-based, Macaca fascicularis; settings: in vivo, 3.25 h
[24] = Ratio of drug uptake in frontal lobe to cerebellum in anesthetized cynomolgus monkey after 135 mins postinjection; format: ADME, organism-based, Macaca fascicularis; settings: in vivo, 2.25 h
Midbrain [25] = test: Drug uptake in anesthetized cynomolgus monkey brain midbrain after 135 mins postinjection; format: ADME, organism-based, Macaca fascicularis; settings: in vivo, 2.25 h
Midbrain [26] = test: Drug uptake in anesthetized cynomolgus monkey brain midbrain after 165 mins postinjection; format: ADME, organism-based, Macaca fascicularis; settings: in vivo, 2.75 h
Midbrain [27] = test: Drug uptake in anesthetized cynomolgus monkey brain midbrain after 175 mins postinjection; format: ADME, organism-based, Macaca fascicularis; settings: in vivo
Midbrain [28] = test: Drug uptake in anesthetized cynomolgus monkey brain midbrain after 235 mins postinjection; format: ADME, organism-based, Macaca fascicularis; settings: in vivo
Pons [29] = test: Drug uptake in anesthetized cynomolgus monkey brain pons after 85 mins postinjection; format: ADME, organism-based, Macaca fascicularis; settings: in vivo
Thalamus [30] = test: Drug uptake in anesthetized cynomolgus monkey brain thalamus after 195 mins postinjection; format: ADME, organism-based, Macaca fascicularis; settings: in vivo, 3.25 h
Thalamus [31] = test: Drug uptake in anesthetized cynomolgus monkey brain thalamus after 205 mins postinjection; format: ADME, organism-based, Macaca fascicularis; settings: in vivo
[32] = Drug uptake in anesthetized cynomolgus monkey brain cerebellum after 195 mins postinjection; format: ADME, organism-based, Macaca fascicularis; settings: in vivo, 3.25 h
Caudate [33] = test: Drug uptake in anesthetized cynomolgus monkey brain caudate after 185 mins postinjection; format: ADME, organism-based, Macaca fascicularis, Caudate nucleus; settings: in vivo
[34] = Ratio of drug uptake in caudate to cerebellum in anesthetized cynomolgus monkey after 18.5 mins postinjection; format: ADME, organism-based, Macaca fascicularis; settings: in vivo
Pons [35] = test: Drug uptake in anesthetized cynomolgus monkey brain pons after 235 mins postinjection; format: ADME, organism-based, Macaca fascicularis; settings: in vivo
Medulla [36] = test: Drug uptake in anesthetized cynomolgus monkey brain medulla after 18.5 mins postinjection; format: ADME, organism-based, Macaca fascicularis; settings: in vivo
Medulla [37] = test: Drug uptake in anesthetized cynomolgus monkey brain medulla after 27.5 mins postinjection; format: ADME, organism-based, Macaca fascicularis; settings: in vivo
[38] = Ratio of drug uptake in putamen to cerebellum in anesthetized cynomolgus monkey after 3.5 mins postinjection; format: ADME, organism-based, Macaca fascicularis; settings: in vivo
Medulla [39] = test: Drug uptake in anesthetized cynomolgus monkey brain medulla after 125 mins postinjection; format: ADME, organism-based, Macaca fascicularis; settings: in vivo
Medulla [40] = test: Drug uptake in anesthetized cynomolgus monkey brain medulla after 165 mins postinjection; format: ADME, organism-based, Macaca fascicularis; settings: in vivo, 2.75 h
Medulla [41] = test: Drug uptake in anesthetized cynomolgus monkey brain medulla after 235 mins postinjection; format: ADME, organism-based, Macaca fascicularis; settings: in vivo
[42] = Drug uptake in anesthetized cynomolgus monkey brain cerebellum after 6.5 mins postinjection; format: ADME, organism-based, Macaca fascicularis; settings: in vivo
[43] = Drug uptake in anesthetized cynomolgus monkey brain cerebellum after 115 mins postinjection; format: ADME, organism-based, Macaca fascicularis; settings: in vivo
[44] = Drug uptake in anesthetized cynomolgus monkey brain cerebellum after 215 mins postinjection; format: ADME, organism-based, Macaca fascicularis; settings: in vivo
[45] = Ratio of drug uptake in putamen to cerebellum in anesthetized cynomolgus monkey after 235 mins postinjection; format: ADME, organism-based, Macaca fascicularis; settings: in vivo
[46] = Ratio of drug uptake in thalamus to cerebellum in anesthetized cynomolgus monkey after 95 mins postinjection; format: ADME, organism-based, Macaca fascicularis; settings: in vivo
Caudate [47] = test: Drug uptake in anesthetized cynomolgus monkey brain caudate after 12.5 mins postinjection; format: ADME, organism-based, Macaca fascicularis, Caudate nucleus; settings: in vivo
Caudate [48] = test: Drug uptake in anesthetized cynomolgus monkey brain caudate after 165 mins postinjection; format: ADME, organism-based, Macaca fascicularis, Caudate nucleus; settings: in vivo, 2.75 h
Putamen [49] = test: Drug uptake in anesthetized cynomolgus monkey brain putamen after 1.5 mins postinjection; format: ADME, organism-based, Macaca fascicularis; settings: in vivo, 0.025 h
[50] = Ratio of drug uptake in occipital lobe to cerebellum in anesthetized cynomolgus monkey after 0.5 mins postinjection; format: ADME, organism-based, Macaca fascicularis; settings: in vivo
[51] = Ratio of drug uptake in occipital lobe to cerebellum in anesthetized cynomolgus monkey after 18.5 mins postinjection; format: ADME, organism-based, Macaca fascicularis; settings: in vivo
Thalamus [52] = test: Drug uptake in anesthetized cynomolgus monkey brain thalamus after 2.5 mins postinjection; format: ADME, organism-based, Macaca fascicularis; set-up: unit not given here; settings: in vivo
Thalamus [53] = test: Drug uptake in anesthetized cynomolgus monkey brain thalamus after 3.5 mins postinjection; format: ADME, organism-based, Macaca fascicularis; set-up: unit not given here; settings: in vivo
Thalamus [54] = test: Drug uptake in anesthetized cynomolgus monkey brain thalamus after 15.5 mins postinjection; format: ADME, organism-based, Macaca fascicularis; set-up: unit not given here; settings: in vivo
Thalamus [55] = test: Drug uptake in anesthetized cynomolgus monkey brain thalamus after 18.5 mins postinjection; format: ADME, organism-based, Macaca fascicularis; set-up: unit not given here; settings: in vivo
Thalamus [56] = test: Drug uptake in anesthetized cynomolgus monkey brain thalamus after 35 mins postinjection; format: ADME, organism-based, Macaca fascicularis; set-up: unit not given here; settings: in vivo
Putamen [57] = test: Drug uptake in anesthetized cynomolgus monkey brain putamen after 45 mins postinjection; format: ADME, organism-based, Macaca fascicularis; set-up: unit not given here; settings: in vivo, 0.75 h
Putamen [58] = test: Drug uptake in anesthetized cynomolgus monkey brain putamen after 65 mins postinjection; format: ADME, organism-based, Macaca fascicularis; set-up: unit not given here; settings: in vivo
Thalamus [59] = test: Drug uptake in anesthetized cynomolgus monkey brain thalamus after 145 mins postinjection; format: ADME, organism-based, Macaca fascicularis; set-up: unit not given here; settings: in vivo
Thalamus [60] = test: Drug uptake in anesthetized cynomolgus monkey brain thalamus after 155 mins postinjection; format: ADME, organism-based, Macaca fascicularis; set-up: unit not given here; settings: in vivo
Thalamus [61] = test: Drug uptake in anesthetized cynomolgus monkey brain thalamus after 235 mins postinjection; format: ADME, organism-based, Macaca fascicularis; set-up: unit not given here; settings: in vivo
Midbrain [62] = test: Drug uptake in anesthetized cynomolgus monkey brain midbrain after 3.5 mins postinjection; format: ADME, organism-based, Macaca fascicularis; set-up: unit not given here; settings: in vivo
Midbrain [63] = test: Drug uptake in anesthetized cynomolgus monkey brain midbrain after 22.5 mins postinjection; format: ADME, organism-based, Macaca fascicularis; set-up: unit not given here; settings: in vivo, 0.375 h
Midbrain [64] = test: Drug uptake in anesthetized cynomolgus monkey brain midbrain after 105 mins postinjection; format: ADME, organism-based, Macaca fascicularis; set-up: unit not given here; settings: in vivo, 1.75 h
[65] = Ratio of drug uptake in midbrain to cerebellum in anesthetized cynomolgus monkey after 22.5 mins postinjection; format: ADME, organism-based, Macaca fascicularis; settings: in vivo, 0.375 h
[66] = Ratio of drug uptake in midbrain to cerebellum in anesthetized cynomolgus monkey after 27.5 mins postinjection; format: ADME, organism-based, Macaca fascicularis; settings: in vivo
[67] = Ratio of drug uptake in midbrain to cerebellum in anesthetized cynomolgus monkey after 125 mins postinjection; format: ADME, organism-based, Macaca fascicularis; settings: in vivo

O=C(OCCC[18F])C1C2CCC(CC1c1cccc(/C=C\I)c1)N2 (configuration not stated) showed a Ratio [1] of 1.3, a Ratio [2] of 1.2 and a Ratio [3] of 1.6. The Ratio [4] was 1.7, the Ratio [5] was 1.5 and the Ratio [6] was 1.3. For the same compound, the Ratio [7] was 1.8, the Drug uptake [8] was 0.19 and the Drug uptake [9] was 2.06. It also gave a Drug uptake [10] of 2.83, a Drug uptake [11] of 3.52 and a Drug uptake [12] of 3.09. The Drug uptake [13] was 1.88, the Drug uptake [14] was 2.11 and the Drug uptake [15] was 2.77. The Drug uptake [16] was 2.68, the Drug uptake [17] was 2.56 and the Ratio [18] was 1.9. The Ratio [19] was 1.1, the Drug uptake (Putamen [20]) was 3.91 and the Drug uptake (Putamen [21]) was 3.74. For the same compound, the Drug uptake (Putamen [22]) was 3.13, the Ratio [23] was 1.1 and the Ratio [24] was 0.9. For the same compound, the Drug uptake (Midbrain [25]) was 4.45, the Drug uptake (Midbrain [26]) was 4.26 and the Drug uptake (Midbrain [27]) was 4.1. The Drug uptake (Midbrain [28]) was 3.57, the Drug uptake (Pons [29]) was 4.12 and the Drug uptake (Thalamus [30]) was 3.2. For the same compound, the Drug uptake (Thalamus [31]) was 3.14, the Drug uptake [32] was 2.16 and the Drug uptake (Caudate [33]) was 2.82. For the same compound, the Ratio [34] was 0.7, the Drug uptake (Pons [35]) was 3.31 and the Drug uptake (Medulla [36]) was 4.6. It also gave a Drug uptake (Medulla [37]) of 5.08, a Ratio [38] of 0.8 and a Drug uptake (Medulla [39]) of 4.54. It also gave a Drug uptake (Medulla [40]) of 4.45, a Drug uptake (Medulla [41]) of 3.15 and a Drug uptake [42] of 3.91. It also gave a Drug uptake [43] of 3.1, a Drug uptake [44] of 2.06 and a Ratio [45] of 1.6. For the same compound, the Ratio [46] was 1.3, the Drug uptake (Caudate [47]) was 3 and the Drug uptake (Caudate [48]) was 3.04. It also gave a Drug uptake (Putamen [49]) of 0.27, a Ratio [50] of 0.8 and a Ratio [51] of 0.8. The Drug uptake (Thalamus [52]) was 0.8, the Drug uptake (Thalamus [53]) was 1.44 and the Drug uptake (Thalamus [54]) was 4.11. The Drug uptake (Thalamus [55]) was 4.22, the Drug uptake (Thalamus [56]) was 4.81 and the Drug uptake (Putamen [57]) was 5.05. It also gave a Drug uptake (Putamen [58]) of 4.95, a Drug uptake (Thalamus [59]) of 3.93 and a Drug uptake (Thalamus [60]) of 3.73. For the same compound, the Drug uptake (Thalamus [61]) was 2.78, the Drug uptake (Midbrain [62]) was 1.74 and the Drug uptake (Midbrain [63]) was 4.55. The Drug uptake (Midbrain [64]) was 4.82, the Ratio [65] was 1 and the Ratio [66] was 1. For the same compound, the Ratio [67] was 1.6.
